Measured values as given in US7970552B1, “Diagnostic system for selecting nutrition and pharmacological products for animals” (priority 2008, dated 2011).

System: cartilage cells of individual affected unhealthy dogs
Assay: Cartilage cells of affected dogs cultured in vitro with 0 or 60 mg/l curcumin or andrographolide for 6 hours, microarray fold change in gene expression
Type: cell-based, German Shepherd dogs
Conditions: for Fold change of gene expression, mean: 60 mg/l vs 0, 6 hours; for Net effect of the NBC on fold change, mean: net of fold change in unhealthy dogs
Experimental: Total RNA of cells was extracted using phenol/guanidine HCI reagents (Trizol, Invitrogen). RNA quality integrity was analysed using the Agilent 2100 Bioanalyser (Agilent Technologies) of the sample. The samples determined to have no, or minimal, loss of integrity and thus were considered suitable for use in experiments. mRNA was amplified for each sample, starting with 500 ng total RNA using a commercially available kit (Ambion T7 MEGAscript high yield transcription kit, Ambion). The mRNA was quantified using a spectrophotometer. mRNA was directly reverse transcribed to cDNA from […] using the Superscript indirect cDNA labeling Core kit (Invitrogen, Milan, Italy).
Two micrograms of cDNA were labelled with Cyanine-3dCTP (Cy3) or Cyanine-5dCTP (Cy5) fluorochromes using the cDNA labeling purification module kit (Invitrogen, Milan, Italy). Samples were hybridised to a canine specific, whole genome 44k spot 60mer oligonucleotide (Agilent Technologies). The labelled cDNA was appropriately coupled and used for competitive hybridization on the same microarray at 42° C. for 16 h. Fluorescence incorporation was determined using a spectrophotometer. The relative intensity of labelled cDNA in was acquired with ScanArray LITE scanner (PerkinElmer Life Sciences, Inc).
Expression data were then exported into Excel 2007 and processed with SAM software; comparison between groups was achieved using paired student's t tests. […] Correction for multiple hypothesis testing was performed using the false discovery rate (FDR).
Searching within the nutrient data set for biologically active nutrients with anti-arthritic and anti-inflammatory properties identified curcumin and androgropholide as the appropriated compositions. The cartilage cells of individual affected unhealthy dogs were cultured in vitro with 0, or 60 mg/l of curcumin or androgropholide for 6 hours. At the end of the incubation, these cartilage cells from individual affected dogs were washed and used for RNA extraction. For the microarray analysis, co-hybridisation of the RNA from 0 and 60 mg/l was conducted, using the material and the methods described previously.
The table below reports the mean fold change in gene expression of two biologically active nutrients, namely curcumin and andrographolide. […] The dose to be added to the food or the nutrient composition is computed using literature data, which indicates a dose of 4 mg/kg body weight for either curcumin or andrographolide.

[1] = cartilage cells of affected dogs, 60 mg/l, 6 hours

C=C1CC[C@@H]2[C@](C)(CO)[C@H](O)CC[C@@]2(C)[C@@H]1C/C=C1/C(=O)OC[C@H]1O [Androgrpholide]
Fold change of gene expression, mean (gene ACTB): −1.0 | Net effect of the NBC on fold change, mean (gene ACTB, 60 mg/l, 6 hours): 2.8 | Fold change of gene expression, mean (gene ACTR3): 1.0 | Net effect of the NBC on fold change, mean (gene ACTR3, 60 mg/l, 6 hours): 1.3 | Fold change of gene expression, mean (gene ADK): 0.0 | Net effect of the NBC on fold change, mean (gene ADK, 60 mg/l, 6 hours): 3.6 | Fold change of gene expression, mean (gene ANKRD10): 0.0 | Net effect of the NBC on fold change, mean (gene ANKRD10, 60 mg/l, 6 hours): 5.2 | Fold change of gene expression, mean (gene CAV1): 0.0 | Net effect of the NBC on fold change, mean (gene CAV1, 60 mg/l, 6 hours): 4.8 | Fold change of gene expression, mean (gene CDH11): −1.0 | Net effect of the NBC on fold change, mean (gene CDH11, 60 mg/l, 6 hours): 5.9 | Fold change of gene expression, mean (gene COL3A1): −2.0 | Net effect of the NBC on fold change, mean (gene COL3A1, 60 mg/l, 6 hours): 7.5 | Fold change of gene expression, mean (gene COX1): 0.0 | Net effect of the NBC on fold change, mean (gene COX1, 60 mg/l, 6 hours): 0.8 | Fold change of gene expression, mean (gene COX2): 0.0 | Net effect of the NBC on fold change, mean (gene COX2, 60 mg/l, 6 hours): 23.0 | Fold change of gene expression, mean (gene IGFBP7): −2.0 | Net effect of the NBC on fold change, mean (gene IGFBP7, 60 mg/l, 6 hours): 1.7 | Fold change of gene expression, mean (gene IL2): −6.0 | Net effect of the NBC on fold change, mean (gene IL2, 60 mg/l, 6 hours): −3.0 | Fold change of gene expression, mean (gene MMP2): −5.0 | Net effect of the NBC on fold change, mean (gene MMP2, 60 mg/l, 6 hours): 5.0 | Fold change of gene expression, mean (gene NOS2): −6.0 | Net effect of the NBC on fold change, mean (gene NOS2, 60 mg/l, 6 hours): −5.8 | Fold change of gene expression, mean (gene PTGS-2): −5.0 | Net effect of the NBC on fold change, mean (gene PTGS-2, 60 mg/l, 6 hours): −3.8 | Fold change of gene expression, mean (gene SPARC): 0.0 | Net effect of the NBC on fold change, mean (gene SPARC, 60 mg/l, 6 hours): 6.3 | Fold change of gene expression, mean (gene STMN1): 0.0 | Net effect of the NBC on fold change, mean (gene STMN1, 60 mg/l, 6 hours): 6.2 | Fold change of gene expression, mean (gene TIMP1): 0.0 | Net effect of the NBC on fold change, mean (gene TIMP1, 60 mg/l, 6 hours): 6.2 | Fold change of gene expression, mean (gene TIMP2): 0.0 | Net effect of the NBC on fold change, mean (gene TIMP2, 60 mg/l, 6 hours): 2.0 | Fold change of gene expression, mean (gene TNF-a): −8.0 | Net effect of the NBC on fold change, mean (gene TNF-a, 60 mg/l, 6 hours): 2.0 | Fold change of gene expression, mean (gene TUBA): 0.0 | Net effect of the NBC on fold change, mean (gene TUBA, 60 mg/l, 6 hours): 4.7 | Fold change of gene expression, mean (gene TUBB): 0.0 | Net effect of the NBC on fold change, mean (gene TUBB, 60 mg/l, 6 hours): 4.8

C=C1CC[C@@H]2[C@](C)(CO)[C@H](O)CC[C@@]2(C)[C@@H]1C/C=C1/C(=O)OC[C@H]1O [andrographolide]
Anti-inflammatory activity [1]: possesses an anti-inflammatory activity | Match with the regulation of the genes up- or down-regulated in affected unhealthy cartilage cells [1]: does not exactly match the regulation of all the genes

COc1cc(/C=C/C(=O)CC(=O)/C=C/c2ccc(O)c(OC)c2)ccc1O [curcumin]
Match with the regulation of the genes up- or down-regulated in affected unhealthy cartilage cells [1]: completely satisfies these requirements
